Experiments:
[1] = Determination of lipid-water partition coefficient (n-octanol/PBS pH 7.4); assay type: physicochemical; settings: n-octanol / PBS 0.025 M; for logP: n-octanol/phosphate buffer solution (PBS)
Experimental: A 2 mL centrifuge tube was added with 100 µL (10µCi) of a labeling solution, then added with 950 µL of n-octanol and 850 µL of phosphate buffer solution (PBS, 0.025 M, pH=7.4). The 2 mL centrifuge tube was subjected to vortex for 3 min (2,500 rpm) and standing until the reaction solution was layered, and then centrifuged at 9,000 rpm for 5 min. Three samples (each for 100 µL) were collected from each of the two phases, and placed in γ-counter for the determination of radioactive counting. The lipid-water partition coefficient (P) was calculated by Organic phase radioactive counting/ water phase radioactive counting, and was usually expressed as Log P. The log P values of the radioactive compounds provided in Examples 1-4 were shown in Table 3.

S180 tumor = assay: Biodistribution in tumor-bearing mice; assay type: in vivo; settings: for Blood / Bone / Heart / Kidney / Liver / Lung / Muscle / Small intestine / Spleen / Thyroid / Tumor / Tumor/blood ratio / Tumor/muscle ratio: i.v., mice bearing S180 tumor; for target/non-target ratio compared with 99mTc-CNPEDG / tumor uptake compared with 99mTc-CNPEDG / Tumor/lung ratio / tumor/muscle, tumor/blood and tumor/lung ratio compared with p-substituted 99mTc complexes: 120 min p.i.
Experimental: The mice bearing S180 tumors were injected intravenously via the tail vein respectively with the solutions (0.1 mL, 370 kBq) containing the radioactive drugs of Examples 1-4. The mice bearing S180 tumors were sacrificed by decapitation at different time points (30 min, 120 min) after the injection (5 mice for each time point). After dissection, the heart, liver, lung, kidney, spleen, bone, muscle, small intestine, blood and tumors were harvested, and measured for radioactivity with the γ-counter. The biodistribution individual organs or tissues was expressed as the percentage of the injected dose per gram of organ or tissue (% ID/g).

[2] = 120 min, mean ± SD, listed as 99mTc-4-CNPEDG

| Compound | Blood (S180 tumor; 30 min, n=5, mean ± SD) [% ID/g] | Bone (S180 tumor; 30 min, n=5, mean ± SD) [% ID/g] | Heart (S180 tumor; 30 min, n=5, mean ± SD) [% ID/g] | Kidney (S180 tumor; 30 min, n=5, mean ± SD) [% ID/g] | Liver (S180 tumor; 30 min, n=5, mean ± SD) [% ID/g] | Lung (S180 tumor; 30 min, n=5, mean ± SD) [% ID/g] | Muscle (S180 tumor; 30 min, n=5, mean ± SD) [% ID/g] | Small intestine (S180 tumor; 30 min, n=5, mean ± SD) [% ID/g] | Spleen (S180 tumor; 30 min, n=5, mean ± SD) [% ID/g] | Thyroid (S180 tumor; 30 min, n=5, mean ± SD) [%ID/g] | Tumor (S180 tumor; 30 min, n=5, mean ± SD) [% ID/g] | Tumor/blood ratio (S180 tumor; 30 min, n=5, mean ± SD) | Blood (S180 tumor; 120 min, mean ± SD) [% ID/g] | Kidney (S180 tumor; 120 min, mean ± SD) [% ID/g] | Liver (S180 tumor; 120 min, mean ± SD) [% ID/g] | Lung (S180 tumor; 120 min, mean ± SD) [% ID/g] | Muscle (S180 tumor; 120 min, mean ± SD) [% ID/g] | Tumor (S180 tumor; 120 min, mean ± SD) [% ID/g] | Tumor/blood ratio (S180 tumor; 120 min, mean ± SD) | Tumor/muscle ratio (S180 tumor; 120 min, mean ± SD) | further results |
| --- | --- | --- | --- | --- | --- | --- | --- | --- | --- | --- | --- | --- | --- | --- | --- | --- | --- | --- | --- | --- | --- |
| O=C(NC1C(O)OC(CO)C(O)C1O)c1ccc(CC[N+]#[C][99Tc+]([C]#[N+]CCc2ccc(C(=O)NC3C(O)OC(CO)C(O)C3O)cc2)([C]#[N+]CCc2ccc(C(=O)NC3C(O)OC(CO)C(O)C3O)cc2)([C]#[N+]CCc2ccc(C(=O)NC3C(O)OC(CO)C(O)C3O)cc2)([C]#[N+]CCc2ccc(C(=O)NC3C(O)OC(CO)C(O)C3O)cc2)[C]#[N+]CCc2ccc(C(=O)NC3C(O)OC(CO)C(O)C3O)cc2)cc1 (centres unmarked) [^99mTc-4-CNPeDG] | 2.42 ± 0.16 | 1.10 ± 0.07 | 1.15 ± 0.04 | 7.32 ± 0.90 | 0.95 ± 0.03 | 2.80 ± 0.13 | 0.68 ± 0.05 | 1.38 ± 0.20 | 0.70 ± 0.02 | 0.02 ± 0.00 | 2.80 ± 0.04 | 1.16 ± 0.09 | 0.10 ± 0.04 | 2.98 ± 0.74 | 0.38 ± 0.08 | 0.23 ± 0.03 | 0.10 ± 0.02 | 0.95 ± 0.21 | 10.17 ± 1.95 | 9.69 ± 1.81 | Log P [1]: -3.593 ± 0.012; Tumor/muscle ratio (S180 tumor; 30 min, n=5, mean ± SD): 4.16 ± 0.35; Bone (S180 tumor; 120 min, mean ± SD): 0.18 ± 0.03 % ID/g; Heart (S180 tumor; 120 min, mean ± SD): 0.15 ± 0.02 % ID/g; Small intestine (S180 tumor; 120 min, mean ± SD): 0.31 ± 0.07 % ID/g; Spleen (S180 tumor; 120 min, mean ± SD): 0.17 ± 0.03 % ID/g; Thyroid (S180 tumor; 120 min, mean ± SD): 0.003 ± 0.001 %ID/g; Tumor/blood ratio (S180 tumor; [2]): 3.29 ± 0.12; Tumor/muscle ratio (S180 tumor; [2]): 5.21 ± 0.50; target/non-target ratio compared with 99mTc-CNPEDG (S180 tumor; in words): better target/non-target ratio; tumor uptake compared with 99mTc-CNPEDG (S180 tumor; in words): lower tumor uptake; Tumor/lung ratio (S180 tumor; mean ± SD): 1.81 ± 0.30 |
| O=C(Cc1ccc(C[N+]#[C][99Tc+]([C]#[N+]Cc2ccc(CC(=O)NC3C(O)OC(CO)C(O)C3O)cc2)([C]#[N+]Cc2ccc(CC(=O)NC3C(O)OC(CO)C(O)C3O)cc2)([C]#[N+]Cc2ccc(CC(=O)NC3C(O)OC(CO)C(O)C3O)cc2)([C]#[N+]Cc2ccc(CC(=O)NC3C(O)OC(CO)C(O)C3O)cc2)[C]#[N+]Cc2ccc(CC(=O)NC3C(O)OC(CO)C(O)C3O)cc2)cc1)NC1C(O)OC(CO)C(O)C1O (centres unmarked) [^99mTc-4-CNMBDG] | 4.08 ± 0.57 | 3.05 ± 0.62 | 2.67 ± 0.41 | 10.18 ± 1.28 | 3.00 ± 0.55 | 5.89 ± 0.59 | 1.96 ± 0.50 | 4.04 ± 0.87 | 2.24 ± 0.38 | 0.07 ± 0.01 | 6.46 ± 1.86 | 1.57 ± 0.36 | 0.64 ± 0.22 | 7.37 ± 1.71 | 2.43 ± 0.49 | 1.31 ± 0.44 | 0.86 ± 0.15 | 6.22 ± 1.77 | 10.06 ± 1.54 | 7.14 ± 1.11 | logP [1]: -3.1 ± 0.036; Tumor/muscle ratio (S180 tumor; 30 min, n=5, mean ± SD): 3.52 ± 1.35; Bone (S180 tumor; 120 min, mean ± SD): 1.27 ± 0.35 % ID/g; Heart (S180 tumor; 120 min, mean ± SD): 1.31 ± 0.18 % ID/g; Small intestine (S180 tumor; 120 min, mean ± SD): 1.65 ± 0.43 % ID/g; Spleen (S180 tumor; 120 min, mean ± SD): 1.28 ± 0.34 % ID/g; Thyroid (S180 tumor; 120 min, mean ± SD): 0.03 ± 0.01 %ID/g; tumor uptake compared with 99mTc-CNPEDG (S180 tumor; in words): higher tumor uptake; clearance in blood (S180 tumor; compared with 99mTc-CNPEDG, in words): faster clearance in blood |
| O=C(NC1C(O)OC(CO)C(O)C1O)c1ccc([N+]#[C][99Tc+]([C]#[N+]c2ccc(C(=O)NC3C(O)OC(CO)C(O)C3O)cc2)([C]#[N+]c2ccc(C(=O)NC3C(O)OC(CO)C(O)C3O)cc2)([C]#[N+]c2ccc(C(=O)NC3C(O)OC(CO)C(O)C3O)cc2)([C]#[N+]c2ccc(C(=O)NC3C(O)OC(CO)C(O)C3O)cc2)[C]#[N+]c2ccc(C(=O)NC3C(O)OC(CO)C(O)C3O)cc2)cc1 (centres unmarked) [^99mTc-4-CNBzDG] | – | – | – | – | – | – | – | – | – | – | – | – | – | – | – | – | – | – | 0.47 ± 0.02 | 2.34 ± 0.18 | Tumor/lung ratio (S180 tumor; mean ± SD): 0.49 ± 0.02 |
| O=C(NC1C(O)OC(CO)C(O)C1O)c1cccc([N+]#[C][99Tc+]([C]#[N+]c2cccc(C(=O)NC3C(O)OC(CO)C(O)C3O)c2)([C]#[N+]c2cccc(C(=O)NC3C(O)OC(CO)C(O)C3O)c2)([C]#[N+]c2cccc(C(=O)NC3C(O)OC(CO)C(O)C3O)c2)([C]#[N+]c2cccc(C(=O)NC3C(O)OC(CO)C(O)C3O)c2)[C]#[N+]c2cccc(C(=O)NC3C(O)OC(CO)C(O)C3O)c2)c1 (centres unmarked) [^99mTc-3-CNBzDG] | 2.53 ± 0.83 | 1.44 ± 0.29 | 1.44 ± 0.21 | 6.69 ± 0.68 | 1.38 ± 0.24 | 4.00 ± 0.52 | 0.77 ± 0.06 | 2.05 ± 0.29 | 1.06 ± 0.27 | 0.03 ± 0.01 | 2.51 ± 0.52 | 1.04 ± 0.22 | 0.27 ± 0.02 | 4.49 ± 0.56 | 0.89 ± 0.09 | 0.76 ± 0.20 | 0.24 ± 0.05 | 1.47 ± 0.22 | 5.39 ± 0.79 | 6.16 ± 0.71 | logP [1]: -3.74 ± 0.038; Tumor/muscle ratio (S180 tumor; 30 min, n=5, mean ± SD): 3.28 ± 0.66; Bone (S180 tumor; 120 min, mean ± SD): 0.42 ± 0.03 % ID/g; Heart (S180 tumor; 120 min, mean ± SD): 0.54 ± 0.07 % ID/g; Small intestine (S180 tumor; 120 min, mean ± SD): 0.70 ± 0.10 % ID/g; Spleen (S180 tumor; 120 min, mean ± SD): 0.43 ± 0.17 % ID/g; Thyroid (S180 tumor; 120 min, mean ± SD): 0.01 ± 0.00 %ID/g; target/non-target ratio compared with 99mTc-CNPEDG (S180 tumor; in words): better target/non-target ratio; tumor uptake compared with 99mTc-CNPEDG (S180 tumor; in words): lower tumor uptake; tumor/muscle, tumor/blood and tumor/lung ratio compared with p-substituted 99mTc complexes (S180 tumor; in words): higher; Tumor/lung ratio (S180 tumor; mean ± SD): 2.01 ± 0.35 |
| O=C(NC1C(O)OC(CO)C(O)C1O)c1cccc(C[N+]#[C][99Tc+]([C]#[N+]Cc2cccc(C(=O)NC3C(O)OC(CO)C(O)C3O)c2)([C]#[N+]Cc2cccc(C(=O)NC3C(O)OC(CO)C(O)C3O)c2)([C]#[N+]Cc2cccc(C(=O)NC3C(O)OC(CO)C(O)C3O)c2)([C]#[N+]Cc2cccc(C(=O)NC3C(O)OC(CO)C(O)C3O)c2)[C]#[N+]Cc2cccc(C(=O)NC3C(O)OC(CO)C(O)C3O)c2)c1 (centres unmarked) [^99mTc-3-CNPEDG] | 2.82 ± 0.30 | 1.26 ± 0.23 | 1.18 ± 0.12 | 9.69 ± 3.48 | 1.30 ± 0.06 | 3.10 ± 0.22 | 0.82 ± 0.24 | 2.19 ± 0.69 | 0.86 ± 0.09 | 0.04 ± 0.01 | 2.72 ± 0.36 | 0.97 ± 0.07 | 0.22 ± 0.07 | 4.70 ± 0.81 | 0.68 ± 0.07 | 0.42 ± 0.09 | 0.16 ± 0.04 | 1.35 ± 0.20 | 6.40 ± 1.45 | 8.76 ± 1.14 | logP [1]: -3.39 ± 0.166; Tumor/muscle ratio (S180 tumor; 30 min, n=5, mean ± SD): 3.49 ± 0.71; Bone (S180 tumor; 120 min, mean ± SD): 0.30 ± 0.06 % ID/g; Heart (S180 tumor; 120 min, mean ± SD): 0.23 ± 0.05 % ID/g; Small intestine (S180 tumor; 120 min, mean ± SD): 0.43 ± 0.11 % ID/g; Spleen (S180 tumor; 120 min, mean ± SD): 0.25 ± 0.06 % ID/g; Thyroid (S180 tumor; 120 min, mean ± SD): 0.01 ± 0.00 %ID/g; target/non-target ratio compared with 99mTc-CNPEDG (S180 tumor; in words): better target/non-target ratio; tumor uptake compared with 99mTc-CNPEDG (S180 tumor; in words): lower tumor uptake; tumor/muscle, tumor/blood and tumor/lung ratio compared with p-substituted 99mTc complexes (S180 tumor; in words): higher; Tumor/lung ratio (S180 tumor; mean ± SD): 3.26 ± 0.37 |
| O=C(NC1C(O)OC(CO)C(O)C1O)c1ccc(C[N+]#[C][99Tc+]([C]#[N+]Cc2ccc(C(=O)NC3C(O)OC(CO)C(O)C3O)cc2)([C]#[N+]Cc2ccc(C(=O)NC3C(O)OC(CO)C(O)C3O)cc2)([C]#[N+]Cc2ccc(C(=O)NC3C(O)OC(CO)C(O)C3O)cc2)([C]#[N+]Cc2ccc(C(=O)NC3C(O)OC(CO)C(O)C3O)cc2)[C]#[N+]Cc2ccc(C(=O)NC3C(O)OC(CO)C(O)C3O)cc2)cc1 (centres unmarked) [^99mTc-CNPEDG, reference compound] | – | – | – | – | – | – | – | – | – | – | – | – | 1.29 ± 0.16 | 7.56 ± 0.94 | 2.52 ± 0.26 | 2.39 ± 0.31 | 0.82 ± 0.08 | 4.25 ± 0.56 | 3.29 ± 0.12 | 5.21 ± 0.50 | – |

— US20230263914A1, “BENZENE RING-CONTAINING GLUCOSE DERIVATIVE AND USE THEREOF” (priority 2020, published 2023)
